# Results taken from patent publication US10640463B2, “Chlorhexidine crystal forms and uses thereof in medicine” (Queen Mary University of London, priority 2016, dated 2020).
# Several values for one entry are separate records, joined by “and”; a condition that tells them apart may be missing. Equal entries are not always repeated.
# Assays:
# L929 cells [1] = experiment: Cytotoxicity assay (MTT); conditions: for relative cellular viability: 0.001% chlorhexidine spheres
# Experimental: 0.5% chlorhexidine spheres stock solution was used to prepare fresh successive dilutions in sterile deionised water to obtain the final concentrations ranging from 0.0005 to 0.25%. For controls (untreated cultures), sterile deionised water was used. 25 μl of each treatment were added into respective wells to achieve final concentrations ranging from 0.00005-0.025%.
# L929 cells, a mouse fibroblast-like cell line (ECACC 85011425) were cultured in Dulbecco's Modified Eagle's Medium (DMEM; Lonza, UK) supplemented with 10% fetal bovine serum (FBS) with 100 IU/mL penicillin, 100 μg/mL streptomycin and 2 mmol/L glutamine (all from Invitrogen, UK) in an humidified incubator with 10% CO2 and 95% air at 37° C.
# Cell metabolic activity was evaluated by measuring the mitochondrial activity using a method commonly known as a methyl-tetrazolium (MTT) assay. MTT assay was carried out according to the protocols outlined in ISO 1 0993-5:2009 (Biological evaluation of medical devices—Part 5: Tests for in vitro cytotoxicity).
# Trypsinisation was performed by routine methods and cell suspension was counted using a haemocytometer and seeded in 96-well microtiter plates at a concentration of 10,000 cells per well. The cells were then left overnight in the incubator to adhere to the wells. Following overnight incubation, medium was removed and cells were washed twice with PBS. The cells were then treated with different concentrations of chlorhexidine spheres (0.00005-0.025%) for 24 and 48 hours. Following treatment, culture medium containing chlorhexidine spheres was removed and 50 μL of 5 mg/mL tetrazolium salt MTT (Sigma-Aldrich, Gillingham, UK) was added to each well and incubated in 37 C for 4 h. Formazan crystals generated by mitochondrial enzyme activity were dissolved by 100 μl of isopropanol and the intensity of purple coloured reaction product quantified by measuring the absorbance spectra at 570 nm. A cell viability level below 70% of control (no treatment) was regarded as the toxic concentration according to the ISO protocol.
# L929 cells [2] = experiment: Cell proliferation assay (total DNA content, Hoechst 33258); assay type: cell-based, mouse
# Experimental: To determine any increase in cell numbers over time following chlorhexidine spheres treatment, a cell proliferation assay was performed by analysing the total DNA content using a fluorimetric plate reader based assay (Hoechst dye, R. Rago analytical biochemistry, 1990, 191: 31-34). Briefly, the 96 well plates were collected at 24 and 48 hour time points, washed twice with PBS and stored at −20° C. The cells were thawed to room temperature and 100 μl distilled water was added to each well, incubated for another hour and refrozen to suspend DNA. After 24 hrs, cells were thawed again and 100 μl of the fluorochrome Hoechst 33258 (Sigma-Aldrich, UK) at the concentration 20 μg/ml in THE buffer (2M NaCl) was added to each well. The intensity of the fluorescence was then read at A 350 nm excitation and A 460 nm emissions.
# [3] = test system: Aggregatibacter actinomycetemcomitans (strain-Y4); experiment: MIC and MBC of chlorhexidine spheres; assay type: cell-based; set-up: key to MIC/MBC class at this concentration: The MIC was defined as the lowest concentration of chlorhexidine spheres that inhibited the growth of microorganism at each time point; The MBC was the lowest concentration of chlorhexidine spheres giving no observable bacterial growth; conditions: for MIC: planktonic A. actinomycetemcomitans
# Experimental: (§1) The effectiveness of the chlorhexidine spheres against a panel of periodontal pathogens was evaluated by measurements of the growth (optical density) of bacterial cultures. Porphyromonas gingivalis (strain-W50), Fusobacterium nucleatum sub species polymorphum (strain-NCTC10562) and Aggregatibacter actinomycetemcomitans (strain-Y4) were grown on blood agar plates and in brain heart infusion (BHI) broth in an anaerobic environment with an atmosphere of 5% H2, 10% CO2, and 85% N2 at 37° C. for 2 days. BHI broth was pre-reduced with 5 μg/ml hemin and 5 μg/ml menadione bisulphite added. Bacterial numbers in the BHI cultures were determined and standardised by serial dilution and enumeration of colony forming units (CFUs) on agar plates. After overnight incubation, the bacterial suspensions were diluted 1:20 with fresh BHI medium to achieve an optical density of 0.1 for P. gingivalis and A. actinomycetemcomitans and 0.2 for F. nucleatum sub sp. polymorphum at 595 nm (OD595) to give approximately 6.5×10^7 colony-forming units (CFU) per ml.
# (§2) Negative control (bacterial inoculum only but no chlorhexidine spheres) and blank (medium only) wells were also included. The microtiter plates were incubated for 0, 24 and 48 hours in anaerobic conditions as above and the optical density (OD) was determined at 595 nm to quantify bacterial growth. The MIC was defined as the lowest concentration of chlorhexidine spheres that inhibited the growth of microorganism at each time point. The MBC was the lowest concentration of chlorhexidine spheres giving no observable bacterial growth. MBC was determined following transfer of the microtiter well contents to micro centrifuge tubes, centrifuging to pellet the bacterial cells, washing to remove any remaining chlorhexidine spheres and incubation on blood agar plates. After incubation anaerobically growth of bacteria that had survived the treatment was recorded.
# [4] = test system: Fusobacterium nucleatum sub species polymorphum (strain-NCTC10562); experiment: MIC and MBC of chlorhexidine spheres; assay type: cell-based; set-up: key to MIC/MBC class at this concentration: The MIC was defined as the lowest concentration of chlorhexidine spheres that inhibited the growth of microorganism at each time point; The MBC was the lowest concentration of chlorhexidine spheres giving no observable bacterial growth; conditions: for MBC: F. nucleatum sub sp. polymorphum; for MIC: planktonic F. nucleatum sub sp. polymorphum
# Experimental: as §1, §2
# [5] = test system: Porphyromonas gingivalis (strain-W50); experiment: MIC and MBC of chlorhexidine spheres; assay type: cell-based; set-up: key to MIC/MBC class at this concentration: The MIC was defined as the lowest concentration of chlorhexidine spheres that inhibited the growth of microorganism at each time point; The MBC was the lowest concentration of chlorhexidine spheres giving no observable bacterial growth
# Experimental: as §1, §2
# [6] = Chlorhexidine release from PMMA resin; assay type: physicochemical; conditions: 5% loading, after 650 hours
# Experimental: For the release study, all sample resin discs (HEMA-UDMA) containing chlorhexidine chloride compounds or chlorhexidine diacetate powder prepared in Example 5 were kept in cuvettes containing 3 ml deionized water, and kept at room temperature. And at each time point, solutions were collected for UV absorption tests (Lambda 35, Perkin Elmer, USA) and replaced with fresh deionized water.
# The PMMA resin system was also tested for the release kinetics of spherical chlorhexidine chloride compounds. Specifically, PMMA resin was prepared by mixing the Simplex Rapid Liquid and powder (Kemdent, Lot: 920 758) at a weight ratio of 1:2. The self-cure process took about 15 min, and after which the mixture was filled into a Teflon mould in the same way and pressed (Mestra, Mod.030350). To incorporate the spherical chlorhexidine chloride compounds, they were previously mixed with the Simplex Rapid powder (5% weight of mixture), and the liquid was added.
# [7] = 0.00025% chlorhexidine spheres, 24 hours
# [8] = 0.00025% chlorhexidine spheres, 48 hours
# [9] = 0.0005% chlorhexidine spheres, 24 hours
# [10] = 0.0005% chlorhexidine spheres, 48 hours
# [11] = 0.001% chlorhexidine spheres, 24 hours
# [12] = 0.001% chlorhexidine spheres, 48 hours
# [13] = 0.002% chlorhexidine spheres, 24 hours
# [14] = 0.002% chlorhexidine spheres, 48 hours
# [15] = planktonic P. gingivalis, 48 hours
smiles,measurement,setting,value
Cl.Cl.N=C(NCCCCCCNC(=N)NC(=N)Nc1ccc(Cl)cc1)NC(=N)Nc1ccc(Cl)cc1 [chlorhexidine spheres],cellular viability,"L929 cells [1]; 0.00005% to 0.00025%, both 24 and 48 hours",approximately 90%
same,cellular viability,"L929 cells [1]; 0.0005%, 24 hours",> 80%
same,cellular viability,"L929 cells [1]; 0.0005%, 48 hours",below 70%
same,relative cellular viability,L929 cells [1]; 24 hours,approximately 50%
same,relative cellular viability,L929 cells [1]; 48 hours,20%
same,concentrations demonstrating cytotoxicity,"L929 cells [1]; L929 cells, viability below 70% of control regarded as toxic",above 0.0005%
same,effect on L929 cell proliferation (in words),"L929 cells [2]; 0.00005% to 0.00025%, 24 and 48 hour treatment",induces proliferation
same,effect on L929 cell proliferation (in words),"L929 cells [2]; 0.0005%, 24 hour treatment",no proliferation
same,concentrations profoundly reducing cell proliferation,L929 cells [2]; L929 cells,> 0.0005%
same,concentrations significantly inhibiting proliferation,L929 cells [2]; L929 cells,≥ 0.001%
same,MIC/MBC class at this concentration,[3]; [7],MBC
same,MIC/MBC class at this concentration,[3]; [8],MBC
same,MIC/MBC class at this concentration,[3]; [9],MBC
same,MIC/MBC class at this concentration,[3]; [10],MBC
same,MIC/MBC class at this concentration,[3]; [11],MBC
same,MIC/MBC class at this concentration,[3]; [12],MBC
same,concentrations with antimicrobial effect,[3]; A. actinomycetemcomitans,≥ 0.00025%
same,MBC,"[3]; A. actinomycetemcomitans, 24 and 48 hour cultures",0.00025%
same,MIC,[3]; 24 hours,0.00025%
same,MIC,[3]; 48 hours,0.00025%
same,MIC/MBC class at this concentration,[4]; [9],No Inhibition
same,MIC/MBC class at this concentration,[4]; [10],No Inhibition
same,MIC/MBC class at this concentration,[4]; [11],MBC
same,MIC/MBC class at this concentration,[4]; [12],MBC
same,MIC/MBC class at this concentration,[4]; [13],MBC
same,MIC/MBC class at this concentration,[4]; [14],MBC
same,MIC/MBC class at this concentration,"[4]; 0.004% chlorhexidine spheres, 24 hours",MBC
same,MIC/MBC class at this concentration,"[4]; 0.004% chlorhexidine spheres, 48 hours",MBC
same,MBC,[4]; 24 hours,0.001%
same,MBC,[4]; 48 hours,0.001%
same,threshold for inhibition (MIC),"[4]; F. nucleatum, time not stated",0.001%
same,MIC,[4]; 24 hours,0.0005% and 0.001%
same,MIC,[4]; 48 hours,0.001%
same,MIC/MBC class at this concentration,[5]; [7],MIC
same,MIC/MBC class at this concentration,[5]; [8],MBC
same,MIC/MBC class at this concentration,[5]; [9],MBC
same,MIC/MBC class at this concentration,[5]; [10],MBC
same,MIC/MBC class at this concentration,[5]; [11],MBC
same,MIC/MBC class at this concentration,[5]; [12],MBC
same,MIC/MBC class at this concentration,[5]; [13],MBC
same,MIC/MBC class at this concentration,[5]; [14],MBC
same,concentrations with antimicrobial effect,[5]; P. gingivalis,≥ 0.00025%
same,MBC,"[5]; P. gingivalis, 24 hours",0.0005%
same,MIC,"[5]; planktonic P. gingivalis, 24 hours",0.00025%
same,MBC,[5]; [15],0.00025%
same,MIC,[5]; [15],0.00025%
same,chlorhexidine released,[6],8%
